Holding throughout (format): in vivo
Assay [1] deals with C57BL/6 (H2Kb), female mice. Briefly: antigen-specific CD4 T cell response, intracellular cytokine staining of PBLs after vaccination. Particulars: liposome-based MPL and QS-21-containing formulation; vs control formulation; dose dependent; FIG. 4. The procedure:
(§1) Formulation of the compounds for a comparison study requires taking into account the different molecular weights of the core and lipidated molecules, (e.g. 45 and 4.5 μg of the lipidated compound L3 corresponds to approximately to 15 and 1.5 μg of the corresponding core compound, “L3 core”), allowing for the side by side comparison of the corresponding groups in the study. Higher doses of L3 (200 μg) and of L3 core (150 μg) are also tested. In one such study formulations summarized and described below (table 1) are used to vaccinate 6-8 week old C57BL/6 (H2Kb), female mice (10/group). The mice receive two injections 14 days apart and are bled during weeks 1, 3 and 4 (for precise bleed days see FIG. 1). The mice are vaccinated intramuscularly. A heterologous prime/boost using recombinant adenovirus coding for the SIV-p27 protein and adjuvanted p27 are used as control groups, the adenovirus is injected at a dose of 5×10^8 VP. The study design is represented in FIG. 1. […]
(§2) The induction of antigen-specific CD8 and CD4 responses is assessed by measuring intracellular cytokines 7 days after the second injection. […] The secretion of cytokines is blocked by Brefeldin A and the presence of 3 cytokines (IFNγ, TNFα and IL2) is evaluated by flow cytometry after intracellular staining with appropriate antibodies.

For assay [2], the system named is C57BL/6 (H2Kb), female mice. Briefly: p27-specific CD8 response, intracellular cytokine staining of PBLs after vaccination. Particulars: 7 days after the second immunization; co-administered with MPL and QS-21 formulations; vs control formulation without TLR7/8L; intramuscular; FIG. 2. The method, then: as §1, §2
For assay [3], the system named is C57BL/6 (H2Kb), female mice. Briefly: serum cytokine response after first injection. To be noted: sera of mice 3 and 24 hrs after the first injection. The procedure: Formulation of the compounds for a comparison study requires taking into account the different molecular weights of the core and lipidated molecules, (e.g. 45 and 4.5 μg of the lipidated compound L3 corresponds to approximately to 15 and 1.5 μg of the corresponding core compound, “L3 core”), allowing for the side by side comparison of the corresponding groups in the study. Higher doses of L3 (200 μg) and of L3 core (150 μg) are also tested. In one such study formulations summarized and described below (table 1) are used to vaccinate 6-8 week old C57BL/6 (H2Kb), female mice (10/group). The mice receive two injections 14 days apart and are bled during weeks 1, 3 and 4 (for precise bleed days see FIG. 1). The mice are vaccinated intramuscularly. A heterologous prime/boost using recombinant adenovirus coding for the SIV-p27 protein and adjuvanted p27 are used as control groups, the adenovirus is injected at a dose of 5×10^8 VP. The study design is represented in FIG. 1.
Additional investigation illustrates the ability of lipidated TLR7/8 compounds to induce innate chemokines and pro-inflammatory cytokines among which type I IFN is known to be required for the programming of naïve CD8-T-cell (survival, differentiate and memory development). These cytokines are measured in the sera of mice 3 and 24 hrs after the first injection (FIGS. 5 and 6).

Turning to `CCCCCCCCCCCCCCCC(=O)OC[C@H](COP(=O)(O)OCCn1c(COCC)nc2c(N)nc3ccccc3c21)OC(=O)CCCCCCCCCCCCCCC` [Compound L3, 4-Amino-1-[2-(1,2-dipalmitoyl-sn-glycero-3-phospho)ethyl]-2-ethoxymethyl-1H-imidazo[4,5-c]quinoline], the “p27-specific CD4 frequency” value in assay [1] was “increased”. For the same molecule, the “p27-specific CD8 frequency” value in assay [2] was “clearly increased”. Besides, in assay [3] (added to QS21 and MPL), the IL-6 in serum result is listed as “enhanced” and the TNFα in serum result is “enhanced”. In addition, in assay [3] (with QS21 and MPL), the “IL-12p70 production in serum” value is on record as “Low IL-12p70 production, close to background level” and the “Level of INFγ in serum” value was “increased at low dose”. Besides, in assay [3] (with QS21 and MPL, FIGS. 5 and 6), the IFNα in serum entry was “in a dose-dependent manner and at higher level than for its core counterpart”.

Values taken from patent US8946421B2, “Lipidated imidazoquinoline derivatives” (GlaxoSmithKline Biologicals S.A., priority 2008, dated 2015).
